Legend:
[1] = Selectivity index, ratio of IC50 for antiproliferative activity against NQO1-deficient human NCI-H596 cells to IC50 for antiproliferative activity against human HT-29 cells overexpressing NQO1; assay type: functional
[2] = tested on: HT-29; test: Induction of apoptosis in human HT-29 cells assessed as viable cells at 1 uM incubated for 48 hrs by Annexin V-FITC/PI staining based flow cytometry analysis (Rvb= 96.54%); assay type: functional; details: read-out: Activity
[3] = tested on: HT-29; test: Induction of apoptosis in human HT-29 cells assessed as early apoptotic cells at 1 uM incubated for 48 hrs by Annexin V-FITC/PI staining based flow cytometry analysis (Rvb= 2.41%); assay type: functional
[4] = tested on: HT-29; test: Induction of apoptosis in human HT-29 cells assessed as dead cells at 2 uM incubated for 48 hrs by Annexin V-FITC/PI staining based flow cytometry analysis (Rvb= 0.01%); assay type: functional
[5] = tested on: HT-29; test: Induction of apoptosis in human HT-29 cells assessed as early apoptotic cells at 4 uM incubated for 48 hrs by Annexin V-FITC/PI staining based flow cytometry analysis (Rvb= 2.41%); assay type: functional
[6] = tested on: HT-29; test: Induction of cell cycle arrest in human HT-29 cells assessed as accumulation of cells at G2 phase at 2 uM incubated for 48 hrs by RNaeA/propidium iodide based flow cytometry analysis (reference value: 13.96 %); assay type: functional
[7] = tested on: HT-29; test: Induction of cell cycle arrest in human HT-29 cells assessed as accumulation of cells at S phase at 2 uM incubated for 48 hrs by RNaeA/propidium iodide based flow cytometry analysis (reference value: 23.06 %); assay type: functional
[8] = tested on: HT-29; test: Induction of mitochondrial membrane potential loss in human HT-29 cells assessed as healthy cells at 1 uM incubated for 48 hrs by JC-1 staining based flow cytometry analysis (reference value: 93.4 %); assay type: functional
[9] = tested on: HT-29; test: Induction of apoptosis in human HT-29 cells assessed as upregulation of Bax protein expression incubated for 48 hrs by Western blot analysis; assay type: functional, cell-based; details: dose 1-4 µM, DDE = dose-dependent effect
[10] = tested on: HT-29; test: Antitumor activity against human HT-29 cells overexpressing NQO-1 xenografted in ICR mouse assessed as reduction in tumor weight at 30 mg/kg, ip administered every day for 21 days and measured every 2 days relative to control; assay type: functional; set-up: scale not given: the % may be the effect or the level left; details: time 21 day
[11] = tested on: HT-29; test: Induction of mitochondrial membrane potential loss in human HT-29 cells assessed as JC-1 monomer formation by measuring increase in green intensity at 1 uM incubated for 48 hrs by JC-1 staining based flow cytometry analysis (reference value: 6.54 %); assay type: functional
[12] = tested on: HT-29; test: Induction of mitochondrial membrane potential loss in human HT-29 cells assessed as JC-1 monomer formation by measuring increase in green intensity at 4 uM incubated for 48 hrs by JC-1 staining based flow cytometry analysis (reference value: 6.54 %); assay type: functional

C=C(C)[C@@H]1CC[C@]2(C(=O)OCCOC(=O)CCC(=O)OCc3cn(C)c4c3C(=O)C(OC)=CC4=O)CC[C@]3(C)[C@H](CC[C@@H]4[C@@]5(C)CC[C@H](O)[C@@](C)(CO)[C@@H]5CC[C@]43C)[C@@H]12
Ratio IC50 [1]: 3.44
viability at 1 µM [2]: 75.5%
Activity [3]: 12.54%
Activity [4]: 5.03%
Activity [5]: 32.28%
Activity [6]: 25.17%
Activity [7]: 22.1%
Activity [8]: 79.07%
Activity [9]: Dde
Activity [10]: 72.69%
Activity [11]: 20.83%
Activity [12]: 44.48%
